Laboratory results: patent US12226424B2, “Target protein degradation compounds, their anti-tumor use, their intermediates and use of intermediates” (ShanghaiTech University, priority 2018, dated 2025)

tested on: SR cells; experiment: Half inhibitory concentration (IC50) on ALK-positive SR cell proliferation (CCK-8); assay type: cell-based; settings: Homo sapiens, SR, 72 h, read-out: IC50 (nM)/ SR cell line
Description: ALK-positive SR cells (human large cell immunoblastic lymphoma) were purchased from the American Type Culture Collection (ATCC); H3122 cells (human non-small cell lung cancer) were from the Shanghai University of Science and Technology Lin Haifan's research group.
The cells used in this present disclosure were cultured in a 37° C. incubator containing 5% CO2.
SR cells were seeded in 100 μL RPMI1640 complete medium at a density of 10,000 cells/well. 100 μL of the inoculated cells were treated with 0.5 μL diluted PROTAD compound of the present disclosure to be tested at 10 successively decreasing concentrations (starting at the highest concentration of 10 μM; 5-fold serial dilutions) After the cells were treated with the drug for 72 h, cell viability was determined according to the CCK-8 reagent operating instructions. The negative control was DMSO, and the positive control was a commercial inhibitor. After CCK-8 treatment for 2 h, the value of O.D.450 was measured using a microplate reader.

Row | SMILES | IC50
1 | CCc1cc2c(cc1N1CCC(NC(=O)CCCSc3cccc4c3C(=O)N(C3CCC(=O)NC3=O)C4=O)CC1)C(C)(C)c1[nH]c3cc(C#N)ccc3c1C2=O (stereo not shown) [SIAIS219013, N-(1-(3-cyano-9-ethyl-6,6-dimethyl-11-oxo-6,11-dihydro-5H-benzo[b]carbazol-8-yl)piperidin-4-yl)-4-((2-(2,6-dioxopiperidin-3-yl)-1,3-dioxoisoindolin-4-yl)thio)butanamide] | 143 nM

same assay, conditions: Homo sapiens; SR cells, 72 h drug treatment, CCK-8; read-out: IC50 (nM)/ SR cell line

Row | SMILES | IC50
2 | CCc1cc2c(cc1N1CCC(N3CCN(C(=O)CCCSc4cccc5c4C(=O)N(C4CCC(=O)NC4=O)C5=O)CC3)CC1)C(C)(C)c1[nH]c3cc(C#N)ccc3c1C2=O (stereo not shown) [SIAIS219006, 8-(4-(4-(4-((2-(2,6-dioxopiperidin-3-yl)-1,3-dioxoisoindolin-4-yl)thio)butanoyl)piperazin-1-yl)piperidin-1-yl)-9-ethyl-6,6-dimethyl-11-oxo-6,11-dihydro-5H-benzo[b]carbazole-3-carbonitrile] | 16.4 nM
3 | CCc1cc2c(cc1N1CCC(NC(=O)CSc3cccc4c3CN(C3CCC(=O)NC3=O)C4=O)CC1)C(C)(C)c1[nH]c3cc(C#N)ccc3c1C2=O (stereo not shown) [SIAIS262161, N-(1-(3-cyano-9-ethyl-6,6-dimethyl-11-oxo-6,11-dihydro-5H-benzo[b]carbazol-8-yl)piperidin-4-yl)-2-((2-(2,6-dioxopiperidin-3-yl)-1-oxoisoindolin-4-yl)thio)acetamide] | 1.86 nM
4 | CCc1cc2c(cc1N1CCC(N3CCN(C(=O)COCCSc4cccc5c4CN(C4CCC(=O)NC4=O)C5=O)CC3)CC1)C(C)(C)c1[nH]c3cc(C#N)ccc3c1C2=O (stereo not shown) [SIAIS249066, 8-(4-(4-(2-(2-((2-(2,6-dioxopiperidin-3-yl)-1-oxoisoindolin-4-yl)thio)ethoxy)acetyl)piperazin-1-yl)piperidin-1-yl)-9-ethyl-6,6-dimethyl-11-oxo-6,11-dihydro-5H-benzo[b]carbazole-3-carbonitrile] | 0.17 ± 0.14 nM
5 | CCc1cc2c(cc1N1CCC(N3CCN(CCCCCCSc4cccc5c4CN(C4CCC(=O)NC4=O)C5=O)CC3)CC1)C(C)(C)c1[nH]c3cc(C#N)ccc3c1C2=O (stereo not shown) [SIAIS262159, 8-(4-(4-(6-((2-(2,6-dioxopiperidin-3-yl)-1-oxoisoindolin-4-yl)thio)hexyl)piperazin-1-yl)piperidin-1-yl)-9-ethyl-6,6-dimethyl-11-oxo-6,11-dihydro-5H-benzo[b]carbazole-3-carbonitrile] | 1 nM
6 | CCc1cc2c(cc1N1CCC(N3CCN(C(=O)COCCOCCOCCSc4cccc5c4CN(C4CCC(=O)NC4=O)C5=O)CC3)CC1)C(C)(C)c1[nH]c3cc(C#N)ccc3c1C2=O (stereo not shown) [SIAIS249068, 8-(4-(4-(2-(2-(2-(2-((2-(2,6-dioxopiperidin-3-yl)-1-oxoisoindolin-4-yl)thio)ethoxy)ethoxy)ethoxy)acetyl)piperazin-1-yl)piperidin-1-yl)-9-ethyl-6,6-dimethyl-11-oxo-6,11-dihydro-5H-benzo[b]carbazole-3-carbonitrile] | 0.33 ± 0.06 nM
7 | COc1cc(N2CCC(NC(=O)COCCOCCOCCOCCOCCSc3cccc4c3CN(C3CCC(=O)NC3=O)C4=O)CC2)ccc1Nc1ncc(Cl)c(Nc2ccccc2P(C)(C)=O)n1 (stereo not shown) [SIAIS219143, N-(1-(4-((5-chloro-4-((2-(dimethylphosphoryl)phenyl)amino)pyrimidin-2-yl)amino)-3-methoxyphenyl)piperidin-4-yl)-17-((2-(2,6-dioxopiperidin-3-yl)-1-oxoisoindolin-4-yl)thio)-3,6,9,12,15-pentaoxaheptadecan-1-amide] | 5.53 ± 1.28 nM
8 | COc1cc(N2CCC(NC(=O)CCCCCCSc3cccc4c3CN(C3CCC(=O)NC3=O)C4=O)CC2)ccc1Nc1ncc(Cl)c(Nc2ccccc2P(C)(C)=O)n1 (stereo not shown) [SIAIS219138, N-(1-(4-((5-chloro-4-((2-(dimethylphosphoryl)phenyl)amino)pyrimidin-2-yl)amino)-3-methoxyphenyl)piperidin-4-yl)-7-((2-(2,6-dioxopiperidin-3-yl)-1-oxoisoindolin-4-yl)thio)heptanamide] | 0.29 ± 0.01 nM
9 | CCc1cc2c(cc1N1CCC(NC(=O)CSc3cccc4c3C(=O)N(C3CCC(=O)NC3=O)C4=O)CC1)C(C)(C)c1[nH]c3cc(C#N)ccc3c1C2=O (stereo not shown) [SIAIS219012, N-(1-(3-cyano-9-ethyl-6,6-dimethyl-11-oxo-6,11-dihydro-5H-benzo[b]carbazol-8-yl)piperidin-4-yl)-2-((2-(2,6-dioxopiperidin-3-yl)-1,3-dioxoisoindolin-4-yl)thio)acetamide] | 146 nM
10 | CCc1cc2c(cc1N1CCC(NC(=O)COCCOCCSc3cccc4c3C(=O)N(C3CCC(=O)NC3=O)C4=O)CC1)C(C)(C)c1[nH]c3cc(C#N)ccc3c1C2=O (stereo not shown) [SIAIS219022, N-(1-(3-cyano-9-ethyl-6,6-dimethyl-11-oxo-6,11-dihydro-5H-benzo[b]carbazol-8-yl)piperidin-4-yl)-2-(2-(2-((2-(2,6-dioxopiperidin-3-yl)-1,3-dioxoisoindolin-4-yl)thio)ethoxy)ethoxy)acetamide] | 80.5 nM
11 | CCc1cc2c(cc1N1CCC(N3CCN(C(=O)CCCCCSc4cccc5c4CN(C4CCC(=O)NC4=O)C5=O)CC3)CC1)C(C)(C)c1[nH]c3cc(C#N)ccc3c1C2=O (stereo not shown) [SIAIS262100, 8-(4-(4-(6-((2-(2,6-dioxopiperidin-3-yl)-1-oxoisoindolin-4-yl)thio)hexanoyl)piperazin-1-yl)piperidin-1-yl)-9-ethyl-6,6-dimethyl-11-oxo-6,11-dihydro-5H-benzo[b]carbazole-3-carbonitrile] | 0.52 ± 0.48 nM
12 | CCc1cc2c(cc1N1CCC(N3CCN(C(=O)COCCOCCSc4cccc5c4CN(C4CCC(=O)NC4=O)C5=O)CC3)CC1)C(C)(C)c1[nH]c3cc(C#N)ccc3c1C2=O (stereo not shown) [SIAIS249067, 8-(4-(4-(2-(2-(2-((2-(2,6-dioxopiperidin-3-yl)-1-oxoisoindolin-4-yl)thio)ethoxy)ethoxy)acetyl)piperazin-1-yl)piperidin-1-yl)-9-ethyl-6,6-dimethyl-11-oxo-6,11-dihydro-5H-benzo[b]carbazole-3-carbonitrile] | 0.38 ± 0.18 nM
13 | COc1cc(N2CCC(NC(=O)COCCOCCSc3cccc4c3CN(C3CCC(=O)NC3=O)C4=O)CC2)ccc1Nc1ncc(Cl)c(Nc2ccccc2P(C)(C)=O)n1 (stereo not shown) [SIAIS219140, N-(1-(4-((5-chloro-4-((2-(dimethylphosphoryl)phenyl)amino)pyrimidin-2-yl)amino)-3-methoxyphenyl)piperidin-4-yl)-2-(2-(2-((2-(2,6-dioxopiperidin-3-yl)-1-oxoisoindolin-4-yl)thio)ethoxy)ethoxy)acetamide] | 5.08 ± 0.62 nM
14 | CCc1cc2c(cc1N1CCN(C3CCN(C(=O)CSc4cccc5c4C(=O)N(C4CCC(=O)NC4=O)C5=O)CC3)CC1)C(C)(C)c1[nH]c3cc(C#N)ccc3c1C2=O (stereo not shown) [SIAIS219005, 8-(4-(1-(2-((2-(2,6-dioxopiperidin-3-yl)-1,3-dioxoisoindolin-4-yl)thio)acetyl)piperidin-4-yl)piperazin-1-yl)-9-ethyl-6,6-dimethyl-11-oxo-6,11-dihydro-5H-benzo[b]carbazole-3-carbonitrile] | 8.7 nM
15 | CCc1cc2c(cc1N1CCC(N3CCN(CCSc4cccc5c4C(=O)N(C4CCC(=O)NC4=O)C5=O)CC3)CC1)C(C)(C)c1[nH]c3cc(C#N)ccc3c1C2=O (stereo not shown) [SIAIS262158, 8-(4-(4-(2-((2-(2,6-dioxopiperidin-3-yl)-1,3-dioxoisoindolin-4-yl)thio)ethyl)piperazin-1-yl)piperidin-1-yl)-9-ethyl-6,6-dimethyl-11-oxo-6,11-dihydro-5H-benzo[b]carbazole-3-carbonitrile] | 2.9 nM
16 | COc1cc(N2CCC(NC(=O)CCCSc3cccc4c3CN(C3CCC(=O)NC3=O)C4=O)CC2)ccc1Nc1ncc(Cl)c(Nc2ccccc2P(C)(C)=O)n1 (stereo not shown) [SIAIS219135, N-(1-(4-((5-chloro-4-((2-(dimethylphosphoryl)phenyl)amino)pyrimidin-2-yl)amino)-3-methoxyphenyl)piperidin-4-yl)-4-((2-(2,6-dioxopiperidin-3-yl)-1-oxoisoindolin-4-yl)thio)butanamide] | 0.33 ± 0.02 nM
17 | COc1cc(N2CCC(NC(=O)COCCSc3cccc4c3CN(C3CCC(=O)NC3=O)C4=O)CC2)ccc1Nc1ncc(Cl)c(Nc2ccccc2P(C)(C)=O)n1 (stereo not shown) [SIAIS219139, N-(1-(4-((5-chloro-4-((2-(dimethylphosphoryl)phenyl)amino)pyrimidin-2-yl)amino)-3-methoxyphenyl)piperidin-4-yl)-2-(2-((2-(2,6-dioxopiperidin-3-yl)-1-oxoisoindolin-4-yl)thio)ethoxy)acetamide] | 1.08 ± 0.1 nM
18 | CCc1cc2c(cc1N1CCC(N3CCN(C(=O)CCCCCSc4cccc5c4C(=O)N(C4CCC(=O)NC4=O)C5=O)CC3)CC1)C(C)(C)c1[nH]c3cc(C#N)ccc3c1C2=O (stereo not shown) [SIAIS219007, 8-(4-(4-(6-((2-(2,6-dioxopiperidin-3-yl)-1,3-dioxoisoindolin-4-yl)thio)hexanoyl)piperazin-1-yl)piperidin-1-yl)-9-ethyl-6,6-dimethyl-11-oxo-6,11-dihydro-5H-benzo[b]carbazole-3-carbonitrile] | 50.1 nM
19 | CCc1cc2c(cc1N1CCC(NC(=O)CCCCCSc3cccc4c3CN(C3CCC(=O)NC3=O)C4=O)CC1)C(C)(C)c1[nH]c3cc(C#N)ccc3c1C2=O (stereo not shown) [SIAIS262162, N-(1-(3-cyano-9-ethyl-6,6-dimethyl-11-oxo-6,11-dihydro-5H-benzo[b]carbazol-8-yl)piperidin-4-yl)-6-((2-(2,6-dioxopiperidin-3-yl)-1-oxoisoindolin-4-yl)thio)hexanamide] | 11.3 nM
